The record followed here is ChEMBL document CHEMBL1909046, “DrugMatrix in vitro pharmacology data”.

pIC50, pKi: −log10 of the molar value.

Assay [1] can be described thus: DRUGMATRIX: Calcium Channel Type L, Benzothiazepine radioligand binding (ligand: [3H] Diltiazem). It is filed as cell membranes, Rattus norvegicus, Wistar, Brain, Membrane. As to conditions: Not Active = under 50% inhibition at 10 µM.
Assay [2] in a line: DRUGMATRIX: Calcium Channel Type L, Phenylalkylamine radioligand binding (ligand: [3H] (-)-Desmethoxyverapamil (D-888)). The assay is classed as cell membranes, Rattus norvegicus, Wistar, Brain, Membrane. As to conditions: Not Active = under 50% inhibition at 10 µM.
In assay [3] the target is T1, Cysteinyl leukotriene receptor 1 (Homo sapiens, UniProt Q9Y271). Further: in other assays of this panel Not Active means under 50% inhibition at 10 µM.
T1 sequence (Q9Y271 whole entry): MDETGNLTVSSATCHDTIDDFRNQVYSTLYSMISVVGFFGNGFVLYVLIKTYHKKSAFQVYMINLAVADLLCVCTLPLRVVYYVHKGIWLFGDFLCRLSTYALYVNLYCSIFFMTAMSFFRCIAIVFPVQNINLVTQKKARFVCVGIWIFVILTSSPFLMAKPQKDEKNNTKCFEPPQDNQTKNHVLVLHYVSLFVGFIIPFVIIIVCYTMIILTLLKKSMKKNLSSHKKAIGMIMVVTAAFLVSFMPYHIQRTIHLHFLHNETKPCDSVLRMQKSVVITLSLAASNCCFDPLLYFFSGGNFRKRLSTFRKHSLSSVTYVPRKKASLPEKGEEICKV
It is filed as cell membranes, CHO-K1, Membrane. As to conditions: cho-k1.

The target in assay [4] is Melanocortin receptor 4 (Homo sapiens, UniProt P32245). The assay is classed as cell membranes, Membrane. As to conditions: hek293. Further: in other assays of this panel Not Active means under 50% inhibition at 10 µM.
Assay [5] has as its target Delta-type opioid receptor (Homo sapiens, UniProt P41143). The assay is classed as cell membranes, HEK293, Membrane. As to conditions: hek293. Further: in other assays of this panel Not Active means under 50% inhibition at 10 µM.
Assay [6] deals with T2, Caspase-1 (Homo sapiens, UniProt P29466).
T2 sequence (P29466 whole entry): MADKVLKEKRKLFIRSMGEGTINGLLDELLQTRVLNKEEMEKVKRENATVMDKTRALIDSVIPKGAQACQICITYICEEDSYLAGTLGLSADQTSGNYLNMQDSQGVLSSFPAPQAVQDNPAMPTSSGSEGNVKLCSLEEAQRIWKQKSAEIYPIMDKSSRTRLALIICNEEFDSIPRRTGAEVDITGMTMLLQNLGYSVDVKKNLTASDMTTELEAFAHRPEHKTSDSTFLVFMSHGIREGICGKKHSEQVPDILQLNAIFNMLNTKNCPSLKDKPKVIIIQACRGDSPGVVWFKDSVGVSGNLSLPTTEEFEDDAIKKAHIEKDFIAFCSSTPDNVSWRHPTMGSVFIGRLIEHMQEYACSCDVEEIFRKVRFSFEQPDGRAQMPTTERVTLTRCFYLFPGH
Details: species or system Escherichia coli.

The target in assay [7] is Tyrosine-protein kinase Fyn (Homo sapiens, UniProt P06241). Briefly: biochemical. The assay is classed as cell-based, Insect cells. The conditions noted are these: for IC50: insect cells; for pIC50: read-out: IC50.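 On all read-outs here: enzymatic inhibition of Fyn kinase activity measured with Poly(Glu:Tyr) as the phosphorylation substrate; in other assays of this panel Not Active means under 50% inhibition at 10 µM.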
For assay [8], the target named is T3, Adenosine receptor A1 (Homo sapiens, UniProt P30542).
T3 sequence (P30542 whole entry): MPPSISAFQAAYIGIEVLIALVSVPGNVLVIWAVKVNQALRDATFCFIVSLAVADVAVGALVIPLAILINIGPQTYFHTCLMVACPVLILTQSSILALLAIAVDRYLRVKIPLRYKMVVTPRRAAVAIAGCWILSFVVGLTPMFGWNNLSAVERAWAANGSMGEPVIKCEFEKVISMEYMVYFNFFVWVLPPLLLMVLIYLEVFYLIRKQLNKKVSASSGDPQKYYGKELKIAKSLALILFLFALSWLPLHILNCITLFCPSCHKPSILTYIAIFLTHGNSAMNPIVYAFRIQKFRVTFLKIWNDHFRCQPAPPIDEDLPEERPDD
The assay is classed as cell membranes, Membrane. As to conditions: cho.

Chain of Delta-type opioid receptor (P41143 whole entry): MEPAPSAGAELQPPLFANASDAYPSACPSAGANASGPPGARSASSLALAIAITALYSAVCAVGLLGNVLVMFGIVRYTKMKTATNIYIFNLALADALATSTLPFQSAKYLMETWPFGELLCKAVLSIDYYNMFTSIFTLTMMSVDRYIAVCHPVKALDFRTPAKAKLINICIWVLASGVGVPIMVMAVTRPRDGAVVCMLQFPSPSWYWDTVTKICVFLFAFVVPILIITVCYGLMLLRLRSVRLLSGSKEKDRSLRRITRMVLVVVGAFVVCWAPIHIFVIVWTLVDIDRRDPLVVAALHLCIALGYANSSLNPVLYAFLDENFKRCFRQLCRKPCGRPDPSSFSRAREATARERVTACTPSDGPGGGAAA
Chain of Melanocortin receptor 4 (P32245 whole entry): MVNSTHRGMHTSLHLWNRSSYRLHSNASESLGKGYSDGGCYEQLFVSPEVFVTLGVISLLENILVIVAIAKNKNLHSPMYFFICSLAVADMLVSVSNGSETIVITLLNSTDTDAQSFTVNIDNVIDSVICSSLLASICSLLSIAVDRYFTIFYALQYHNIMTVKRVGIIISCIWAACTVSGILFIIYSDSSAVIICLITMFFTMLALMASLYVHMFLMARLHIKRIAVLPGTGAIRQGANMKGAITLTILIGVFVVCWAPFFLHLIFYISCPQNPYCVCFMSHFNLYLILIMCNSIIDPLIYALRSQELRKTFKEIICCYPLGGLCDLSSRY
Chain of Tyrosine-protein kinase Fyn (P06241 whole entry): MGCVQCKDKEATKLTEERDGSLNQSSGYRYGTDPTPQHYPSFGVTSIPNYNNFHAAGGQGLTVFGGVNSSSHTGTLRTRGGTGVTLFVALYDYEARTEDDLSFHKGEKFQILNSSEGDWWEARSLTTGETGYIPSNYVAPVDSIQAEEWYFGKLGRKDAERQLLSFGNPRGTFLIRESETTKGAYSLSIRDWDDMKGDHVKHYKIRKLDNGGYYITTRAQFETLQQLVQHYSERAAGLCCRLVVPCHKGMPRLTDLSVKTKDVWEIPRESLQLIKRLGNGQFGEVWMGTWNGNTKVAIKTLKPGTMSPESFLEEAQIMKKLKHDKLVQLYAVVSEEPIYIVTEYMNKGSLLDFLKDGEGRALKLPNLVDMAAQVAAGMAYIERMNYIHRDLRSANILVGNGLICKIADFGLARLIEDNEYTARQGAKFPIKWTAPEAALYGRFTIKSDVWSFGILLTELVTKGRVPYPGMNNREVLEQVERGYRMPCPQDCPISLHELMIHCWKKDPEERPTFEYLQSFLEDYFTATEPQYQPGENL

Take `[H]/N=C(/N)N[C@H]1[C@H](O)[C@@H](O)[C@H](O[C@@H]2O[C@@H](C)[C@](O)(C=O)[C@H]2O[C@@H]2O[C@@H](CO)[C@H](O)[C@@H](O)[C@@H]2NC)[C@@H](N/C(N)=N\[H])[C@@H]1O` [STREPTOMYCIN]: the IC50 result in assay [1], in assay [2], in assay [3], in assay [4], in assay [5] and in assay [6] was “Not Active” each time. Moreover, the IC50 entry in assay [7] and in assay [8] was “Not Active” each time. The Ki entry in assay [1] and in assay [2] was “Not Active” each time.
For `COc1cc(NS(=O)(=O)c2ccc(N)cc2)nc(OC)n1` [SULFADIMETHOXINE], the IC50 entry in assay [1], in assay [2], in assay [3], in assay [4], in assay [5] and in assay [6] was “Not Active” throughout. In addition, the IC50 entry in assay [7] and in assay [8] was “Not Active” in each case. In addition, the Ki result in assay [1] and in assay [2] was “Not Active” each time.
Regarding `Cc1cc(C)nc(NS(=O)(=O)c2ccc(N)cc2)n1` [SULFAMETHAZINE], the IC50 result in assay [1], in assay [2], in assay [3], in assay [4], in assay [5] and in assay [6] was “Not Active” each time. Moreover, the IC50 entry in assay [7] and in assay [8] was “Not Active” throughout. Besides, the Ki result in assay [1] and in assay [2] was “Not Active” in each case.
As for `C[C@]1(Cn2ccnn2)[C@H](C(=O)O)N2C(=O)C[C@H]2S1(=O)=O` [TAZOBACTAM], the IC50 result in assay [1], in assay [2], in assay [3], in assay [4], in assay [5] and in assay [6] was “Not Active” in each case. In addition, the IC50 entry in assay [7] and in assay [8] was “Not Active” in each case. For the same compound, the Ki entry in assay [1] and in assay [2] was “Not Active” each time.
As to `CN1C(C(=O)Nc2ccccn2)=C(O)c2sccc2S1(=O)=O` [TENOXICAM], the IC50 result in assay [1], in assay [2], in assay [3], in assay [4], in assay [5] and in assay [6] was “Not Active” each time. The IC50 entry in assay [7] and in assay [8] was “Not Active” each time. In addition, the Ki entry in assay [1] and in assay [2] was “Not Active” throughout.
Turning to `CC(C)(C)c1ccc(C(O)CCCN2CCC(C(O)(c3ccccc3)c3ccccc3)CC2)cc1` (stereo not given) [TERFENADINE], the pIC50 – broadly, −log10 of the IC50, conventionally taken in molar units – is 6.65 in assay [1] (read-out: IC50), 6.20 in assay [2] (read-out: IC50) and 5.21 in assay [7]. The pKi (as a rule, −log10 of the Ki, conventionally taken in molar units) in assay [1] (read-out: Ki) is 6.70; in assay [2] (read-out: Ki) it was 6.22. Besides, the IC50 entry in assay [3], in assay [4], in assay [5], in assay [6] and in assay [8] was “Not Active” in each case.
As to `O=C1CCC(N2C(=O)c3ccccc3C2=O)C(=O)N1` (stereo not given) [THALIDOMIDE], the IC50 result in assay [1], in assay [2], in assay [3], in assay [4], in assay [5] and in assay [6] was “Not Active” in each case. Further, the IC50 result in assay [7] and in assay [8] was “Not Active” throughout. Further, the Ki result in assay [1] and in assay [2] was “Not Active” in each case.
Regarding `Cc1cccc(Nc2ccncc2S(=O)(=O)NC(=O)NC(C)C)c1` [TORSEMIDE], the IC50 entry in assay [1], in assay [2], in assay [3], in assay [4], in assay [5] and in assay [6] was “Not Active” throughout. Also, the IC50 entry in assay [7] and in assay [8] was “Not Active” each time. Also, the Ki entry in assay [1] and in assay [2] was “Not Active” throughout.
With `CC(C)C[C@H](NC(=O)[C@@H](O)[C@H](N)Cc1ccccc1)C(=O)O` [UBENIMEX], the IC50 result in assay [1], in assay [2], in assay [3], in assay [4], in assay [5] and in assay [6] was “Not Active” each time. Also, the IC50 entry in assay [7] and in assay [8] was “Not Active” throughout. Moreover, the Ki entry in assay [1] and in assay [2] was “Not Active” throughout.
On to `Cc1onc(-c2ccccc2)c1-c1ccc(S(N)(=O)=O)cc1` [VALDECOXIB], for which the IC50 entry in assay [1], in assay [2], in assay [3], in assay [4], in assay [5] and in assay [6] was “Not Active” each time. Moreover, the IC50 result in assay [7] and in assay [8] was “Not Active” each time. Besides, the Ki entry in assay [1] and in assay [2] was “Not Active” in each case.
As for `CC[C@]1(O)C[C@@H]2CN(CCc3c([nH]c4ccccc34)[C@@](C(=O)OC)(c3cc4c(cc3OC)N(C)[C@H]3[C@@](O)(C(=O)OC)[C@H](OC(C)=O)[C@]5(CC)C=CCN6CC[C@]43[C@@H]65)C2)C1` [VINBLASTINE], the IC50 entry in assay [1], in assay [2], in assay [3], in assay [4], in assay [5] and in assay [6] was “Not Active” throughout. The IC50 result in assay [7] and in assay [8] was “Not Active” throughout. Besides, the Ki entry in assay [1] and in assay [2] was “Not Active” in each case.
Regarding `CC(=O)CC(c1ccccc1)c1c(O)c2ccccc2oc1=O` (stereo not given) [WARFARIN], the IC50 result in assay [1], in assay [2], in assay [3], in assay [4], in assay [5] and in assay [6] was “Not Active” each time. For the same compound, the IC50 entry in assay [7] and in assay [8] was “Not Active” throughout. The Ki entry in assay [1] and in assay [2] was “Not Active” each time.
Regarding `C[C@@H](N)[C@H]1CC[C@H](C(=O)Nc2ccncc2)CC1` [Y-27632], the IC50 entry in assay [1], in assay [2], in assay [3], in assay [4], in assay [5] and in assay [6] was “Not Active” each time. For the same compound, the IC50 result in assay [7] and in assay [8] was “Not Active” in each case. The Ki result in assay [1] and in assay [2] was “Not Active” throughout.
On to `[Cl-].[Cl-].[Zn+2]` [ZINC CHLORIDE], for which the IC50 entry in assay [1], in assay [2], in assay [3], in assay [4], in assay [5] and in assay [6] was “Not Active” throughout. For the same compound, the IC50 entry in assay [8] is listed as “Not Active”. The Ki entry in assay [1] and in assay [2] was “Not Active” each time. Besides, in assay [7], the pIC50 is 5.73.
